Test results: a compilation of properties of binary mixtures (doi:10.1016/j.molliq.2008.06.014)

Test: xn = mol fraction of the nth substance listed
Conditions: 101 kPa

CCCC[n+]1ccn(C)c1.F[P-](F)(F)(F)(F)F + NCCO
Conditions | electrical conductivity [S/m] | viscosity [mPa·s]
288.15 K, x2 = 0 | 0.105 | 350
288.15 K, x2 = 0.1185 | 0.124 | 220
288.15 K, x2 = 0.2113 | 0.144 | 172
288.15 K, x2 = 0.3052 | 0.165 | 141
288.15 K, x2 = 0.387 | 0.177 | –
288.15 K, x2 = 0.4282 | 0.178 | 107
288.15 K, x2 = 0.4761 | 0.186 | –
288.15 K, x2 = 0.4918 | 0.186 | 93
288.15 K, x2 = 0.5352 | 0.194 | –
288.15 K, x2 = 0.5871 | 0.2 | –
288.15 K, x2 = 0.6161 | 0.197 | 70
288.15 K, x2 = 0.6533 | 0.198 | –
288.15 K, x2 = 0.6984 | 0.194 | 58
288.15 K, x2 = 0.9592 | 0.0794 | –
293.15 K, x2 = 0 | 0.142 | 250
293.15 K, x2 = 0.1185 | 0.167 | 159
293.15 K, x2 = 0.2113 | 0.194 | 125
293.15 K, x2 = 0.4282 | 0.239 | 78
293.15 K, x2 = 0.4761 | 0.251 | –
293.15 K, x2 = 0.4918 | 0.25 | 68
293.15 K, x2 = 0.6161 | 0.262 | 52
293.15 K, x2 = 0.6533 | 0.264 | –
293.15 K, x2 = 0.6984 | 0.259 | 44
293.15 K, x2 = 0.8022 | 0.243 | 34
293.15 K, x2 = 0.9028 | 0.178 | 27
298.15 K, x2 = 0.1185 | 0.221 | 117
298.15 K, x2 = 0.387 | 0.309 | –
298.15 K, x2 = 0.4282 | 0.312 | 59
298.15 K, x2 = 0.4761 | 0.329 | –
298.15 K, x2 = 0.4918 | 0.325 | 52
298.15 K, x2 = 0.5871 | 0.347 | –
298.15 K, x2 = 0.6161 | 0.34 | 39
298.15 K, x2 = 0.6533 | 0.346 | –
298.15 K, x2 = 0.6984 | 0.34 | 33
298.15 K, x2 = 0.9028 | 0.226 | 21.3
298.15 K, x2 = 0.9592 | 0.131 | –
303.15 K, x2 = 0 | 0.24 | 136
303.15 K, x2 = 0.1185 | 0.286 | 87
303.15 K, x2 = 0.2113 | 0.33 | 70
303.15 K, x2 = 0.3052 | 0.378 | 58
303.15 K, x2 = 0.387 | 0.397 | –
303.15 K, x2 = 0.4282 | 0.4 | 45
303.15 K, x2 = 0.4761 | 0.424 | –
303.15 K, x2 = 0.4918 | 0.415 | 39
303.15 K, x2 = 0.5871 | 0.445 | –
303.15 K, x2 = 0.6161 | 0.432 | 30
303.15 K, x2 = 0.6533 | 0.441 | –
303.15 K, x2 = 0.8022 | 0.397 | 20.8
303.15 K, x2 = 0.9028 | 0.283 | 16.9
303.15 K, x2 = 0.9592 | 0.164 | –
308.15 K, x2 = 0 | 0.309 | 102
308.15 K, x2 = 0.1185 | 0.366 | 67
308.15 K, x2 = 0.2113 | 0.422 | 55
308.15 K, x2 = 0.3052 | 0.486 | 44
308.15 K, x2 = 0.4918 | 0.529 | 30
308.15 K, x2 = 0.5352 | 0.551 | –
308.15 K, x2 = 0.5871 | 0.565 | –
308.15 K, x2 = 0.6161 | 0.55 | 23.6
308.15 K, x2 = 0.6533 | 0.561 | –
308.15 K, x2 = 0.6984 | 0.552 | 20.2
308.15 K, x2 = 0.8022 | 0.495 | 16.3
308.15 K, x2 = 0.9028 | 0.351 | 13.5
308.15 K, x2 = 0.9592 | 0.204 | –
313.15 K, x2 = 0 | 0.384 | 79
313.15 K, x2 = 0.1185 | 0.455 | 53
313.15 K, x2 = 0.2113 | 0.524 | 42
313.15 K, x2 = 0.387 | 0.627 | –
313.15 K, x2 = 0.4282 | 0.635 | 27
313.15 K, x2 = 0.4918 | 0.665 | 24.4
313.15 K, x2 = 0.5871 | 0.698 | –
313.15 K, x2 = 0.6161 | 0.676 | 18.8
313.15 K, x2 = 0.6533 | 0.693 | –
313.15 K, x2 = 0.6984 | 0.675 | 16.3
313.15 K, x2 = 0.8022 | 0.607 | 13.1
313.15 K, x2 = 0.9028 | 0.426 | 11
318.15 K, x2 = 0 | 0.421 | 62
318.15 K, x2 = 0.1185 | 0.558 | 42
318.15 K, x2 = 0.2113 | 0.641 | 34
318.15 K, x2 = 0.387 | 0.766 | –
318.15 K, x2 = 0.4761 | 0.813 | –
318.15 K, x2 = 0.5352 | 0.825 | –
318.15 K, x2 = 0.5871 | 0.846 | –
318.15 K, x2 = 0.6161 | 0.82 | 15.3
318.15 K, x2 = 0.6533 | 0.843 | –
318.15 K, x2 = 0.6984 | 0.821 | 12.8
318.15 K, x2 = 0.8022 | 0.731 | 10.8
318.15 K, x2 = 0.9028 | 0.526 | 9.1
318.15 K, x2 = 0.9592 | 0.3 | –
323.15 K, x2 = 0.1185 | 0.665 | 35
323.15 K, x2 = 0.2113 | 0.76 | 28
323.15 K, x2 = 0.387 | 0.915 | –
323.15 K, x2 = 0.4282 | 0.918 | 18.3
323.15 K, x2 = 0.4918 | 0.945 | 16.1
323.15 K, x2 = 0.5871 | 1 | –
323.15 K, x2 = 0.6161 | 0.971 | 12.8
323.15 K, x2 = 0.6533 | 0.999 | –
323.15 K, x2 = 0.6984 | 0.972 | 11.1
323.15 K, x2 = 0.8022 | 0.861 | 9.1
323.15 K, x2 = 0.9028 | 0.619 | 7.7
323.15 K, x2 = 0.9592 | 0.351 | –
